Data published in BindingDB's records for PubMed 8474008 (Virginia Commonwealth University, 1993).
pKi: −log10 of the molar value. Where “and” joins values, the source holds several entries; their conditions need not be identical. Identical values can stand only once.

biological target: Cannabinoid receptor 1 (Rattus norvegicus, UniProt P20272)
Sequence (P20272 whole entry): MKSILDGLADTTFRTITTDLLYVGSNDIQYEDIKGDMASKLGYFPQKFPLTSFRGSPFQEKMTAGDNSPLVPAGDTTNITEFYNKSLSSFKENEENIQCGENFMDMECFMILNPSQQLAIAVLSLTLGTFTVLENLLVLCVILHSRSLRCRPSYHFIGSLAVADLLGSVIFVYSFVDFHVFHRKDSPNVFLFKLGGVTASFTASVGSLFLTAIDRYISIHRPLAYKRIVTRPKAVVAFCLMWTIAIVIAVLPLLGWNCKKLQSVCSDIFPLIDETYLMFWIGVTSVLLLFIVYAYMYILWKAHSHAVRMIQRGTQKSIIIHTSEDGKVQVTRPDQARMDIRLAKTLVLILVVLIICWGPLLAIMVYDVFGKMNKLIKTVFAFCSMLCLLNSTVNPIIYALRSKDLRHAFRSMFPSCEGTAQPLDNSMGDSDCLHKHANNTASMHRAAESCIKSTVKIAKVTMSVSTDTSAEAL

Q: With `CCCCCC(C)C(C)c1cc(O)c2c(c1)OC(C)(C)C1=C2CC(C)CC1` (stereo unspecified) [DMHP, 1', 2'] as the compound, how does the pKi read?
A: 8.81

Q: How did the pKi turn out when `CC(C)(C)c1ccc([C@H]2CCC[C@@H](O)C2)c(O)c1` [Bicyclic analogs I] was run?
A: < 5.00

Q: How did the pKi turn out when `CCCCCc1cc(OCCCN)c2c(c1)OC(C)(C)[C@@H]1CCC(C)=C[C@@H]21` [THC, 1-O-(3-Aminopropyl)] was run?
A: < 5.00

Q: How did the pKi turn out when `CCCCCCC(C)(C)c1ccc([C@@H]2C[C@H](O)CC[C@H]2C)c(O)c1` [Bicyclic analogs XI] was run?
A: 8.21 and 8.11

Q: With `CCCCCc1cc(OC)c2c(c1)OC(C)(C)[C@@H]1CCC(C)=C[C@@H]21` [THC, 1-O-methyl-delta 9] as the compound, how does the pKi read?
A: < 5.00

Q: With `CCC(C)(C)c1ccc([C@H]2CCC[C@@H](O)C2)c(O)c1` [Bicyclic analogs II] as the compound, how does the pKi read?
A: < 5.00

Q: `CCCCCCC(C)(C)c1ccc([C@H]2CCC[C@@H](O)C2)c(O)c1` [CP-47,497] was tested. Which pKi did it give?
A: 6.13

Q: How did the pKi turn out when `CCCCCCC(C)(C)c1ccc([C@@H]2C[C@H](O)CC[C@H]2CCCCO)c(O)c1` [Bicyclic analogs XVI] was run?
A: 8.81

Q: How did the pKi turn out when `CCCCCCC(C)(C)c1cc(OCc2ccc(-c3ccccc3)cc2)c2c(c1)OC(C)(C)[C@@H]1CCC(CO)=C[C@@H]21` [THC, 1-O-biphenylmethyl-delta 8] was run?
A: < 5.00

Q: How did the pKi turn out when `CCCCCCC(C)(C)c1cc(O)c2c(c1)OC(C)(C)[C@@H]1CCC(CO)=CC21` (stereo partly specified) [(3-(1,1-Dimethyl-heptyl)-9-hydroxymethyl-6,6-dimethyl-6a,7,8,10a-tetrahydro-6H-benzo[c]chromen-1-ol (HU210)] was run?
A: 6.90

Q: How did the pKi turn out when `CC1=C[C@H]2c3c(O)cc(CCCCCF)cc3OC(C)(C)[C@@H]2CC1` [THC, 5'-F] was run?
A: 7.24

Q: With `CC1=C[C@H]2c3c(O)cc(CCCCC(F)(F)F)cc3OC(C)(C)[C@@H]2CC1` [THC, 5'-F3] as the compound, how does the pKi read?
A: 7.70

Q: How did the pKi turn out when `CCCCCCC(C)(C)c1cc(O)c2c(c1)OC(C)(C)[C@H]1CCC(CO)=C[C@H]21` [THC-DMH, (-)-11-OH] was run?
A: 9.14

Q: With `CCCCCc1cc(OC(C)C)c2c(c1)OC(C)(C)[C@@H]1CCC(C)=C[C@@H]21` [THC, O, 2-propano] as the compound, how does the pKi read?
A: < 5.00

Q: With `CCCCCc1cc(O)c2c(c1)OC(C)(C)[C@@H]1CCC(C(=O)O)=C[C@@H]21` [THC, 9-Nor-9-carboxy-delta 9] as the compound, how does the pKi read?
A: < 5.00

Q: With `CCCCCc1cc(OCCCCCCN)c2c(c1)OC(C)(C)[C@@H]1CCC(C)=C[C@@H]21` [THC, 1-O-(6-Aminohexyl)] as the compound, how does the pKi read?
A: 5.76

Q: With `C=C1CC[C@@H]2[C@@H](C1)c1c(O)cc(CCC(CC)CCC)cc1OC2(C)C` (stereo partly specified) [THC, 3-(Norpentyl)-3-propyl] as the compound, how does the pKi read?
A: 6.01

Q: How did the pKi turn out when `CCCCCCCC(C)(C)c1ccc([C@H]2CCC[C@@H](O)C2)c(O)c1` [Bicyclic analogs VII] was run?
A: 8.33

Q: How did the pKi turn out when `CCCCCc1cc(O)c2c(c1)OC(C)(C)[C@@H]1CCC(CO)=C[C@@H]21` [THC, 11-OH-delta 9] was run?
A: 7.42

Q: `CCCCCCC(C)(C)c1cc(O)c2c(c1)OC(C)(C)[C@@H]1CCC(=O)C[C@@H]21` [(6aR,10aR)-3-(1,1-Dimethyl-heptyl)-1-hydroxy-6,6-dimethyl-6,6a,7,8,10,10a-hexahydro-benzo[c]chromen-9-one] was tested. Which pKi did it give?
A: 7.65

Q: How did the pKi turn out when `C=C(C)C1CCC(C)=CC1c1c(O)cc(O)cc1CCCCC` (stereo unspecified) [NSC_3060519] was run?
A: < 5.00

Q: With `C=C1CC[C@@H]2[C@@H](C1)c1c(OC)cc(CCCCC)cc1OC2(C)C` [THC, 1-O-methyl-delta 9,11] as the compound, how does the pKi read?
A: 6.08

Q: `CC1=C[C@H]2c3c(O)cc(CCCCCBr)cc3OC(C)(C)[C@@H]2CC1` [THC, 5'-Br] was tested. Which pKi did it give?
A: 8.12

Q: How did the pKi turn out when `CCCCCCCCCC(C)(C)c1ccc([C@H]2CCC[C@@H](O)C2)c(O)c1` [Bicyclic analogs IX] was run?
A: 6.79

Q: How did the pKi turn out when `CCCCCC(C)(C)c1ccc([C@H]2CCC[C@@H](O)C2)c(O)c1` [Bicyclic analogs V] was run?
A: 6.90

Q: `CCCCCc1cc(O)c2c(c1)OC(C)(C)[C@@H]1C[C@@H](O)C(C)=C[C@@H]21` [THC, 8 beta-OH] was tested. Which pKi did it give?
A: 6.09

Q: `CCCCC(C)(C)c1ccc([C@H]2CCC[C@@H](O)C2)c(O)c1` [Bicyclic analogs IV] was tested. Which pKi did it give?
A: 8.02

Q: `CCCCC[C@@H](C)[C@H](C)c1cc(O)c2c(c1)OC(C)(C)[C@@H]1CC=C(C)C[C@@H]21` was tested. Which pKi did it give?
A: 8.80

Q: With `CCCCCCCCCCC(C)(C)c1ccc([C@H]2CCC[C@@H](O)C2)c(O)c1` [Bicyclic analogs X] as the compound, how does the pKi read?
A: 6.42

Q: How did the pKi turn out when `CCCCCc1cc(O)c2c(c1)OC(C)(C)C1CCC(C)(O)CC21` (stereo unspecified) [NSC_169742] was run?
A: 6.91 and 6.77

Q: How did the pKi turn out when `CC1=C[C@H]2c3c(O)cc(CCCCCI)cc3OC(C)(C)[C@@H]2CC1` [THC, 5'-I] was run?
A: 8.11

Q: `CCCCCc1cc(OC(N)=O)c2c(c1)OC(C)(C)[C@@H]1CCC(C)=C[C@@H]21` [THC, 1-O-Carbamoyl] was tested. Which pKi did it give?
A: < 5.00

Q: `CCCCCc1cc(O)c2c(c1)OC(C)(C)[C@@H]1CCC(C)=C(CO)[C@@H]21` [THC, O, 10-Methano] was tested. Which pKi did it give?
A: < 5.00

Q: With `C=C1CC[C@@H]2[C@@H](C1)c1c(OC)cc(CCC(CC)CCC)cc1OC2(C)C` (stereo partly specified) [THC, 1-O-Methyl-3-(norpentyl)-3-propyl] as the compound, how does the pKi read?
A: < 5.00

Q: How did the pKi turn out when `OCCC[C@@H]1CC[C@@H](O)C[C@H]1c1ccccc1O` [Bicyclic analogs XIII] was run?
A: < 5.00

Q: With `CCCCCc1cc(OCCCCN)c2c(c1)OC(C)(C)[C@@H]1CCC(C)=C[C@@H]21` [THC, 1-O-(4-Aminobutyl)] as the compound, how does the pKi read?
A: < 5.00

Q: `CCCCCCCCC(C)(C)c1ccc([C@H]2CCC[C@@H](O)C2)c(O)c1` [Bicyclic analogs VIII] was tested. Which pKi did it give?
A: 7.55

Q: With `CC1=C[C@H]2c3c(O)cc(CCCCCO)cc3OC(C)(C)[C@@H]2CC1` [THC, 5'-OH] as the compound, how does the pKi read?
A: 7.06

Q: How did the pKi turn out when `CCCC(C)(C)c1ccc([C@H]2CCC[C@@H](O)C2)c(O)c1` [Bicyclic analogs III] was run?
A: 5.42

Q: How did the pKi turn out when `CC1(C)Oc2cc(CCCCC[N+](C)(C)C)cc(O)c2[C@@H]2C=C(CO)CC[C@H]21` [THC, 11-OH-5'-TMA] was run?
A: 5.68

Q: How did the pKi turn out when `CCCCCc1cc(OC)c2c(c1)OC(C)(C)[C@@H]1CCC(CF)=C[C@@H]21` [THC, 11-F] was run?
A: 6.97
